Test results: PMC10469688, “Comparative pharmacokinetics and safety evaluation of high dosage regimens of Andrographis paniculata aqueous extract after single and multiple oral administration in healthy participants” (Frontiers in Pharmacology, 2023)
Read-outs that look alike come from different tables or passages of the source.

What was measured:
[1] = Cumulative urinary excretion after single oral administration of A. paniculata aqueous extract capsules in healthy participants; assay type: in vivo, human; conditions: for Cumulative urine: urine T 0–48 h
Experimental: (§1) An opened-label, two-dosage, single- and multiple-oral dosing, single center, phase I safety and pharmacokinetic study was conducted in healthy participants while they were under a fasting condition. […] Two weeks prior to the beginning of the clinical study, the volunteers were advised to abstain from other dietary supplements, herbal products, or any concomitant medicines. During the period of the study, no other medications were allowed. All participants fasted overnight for at least 8 h before drug administration. The study conducted a single-dose investigation on day 1 by oral administering A. paniculata extract capsules once in both groups. Twelve participants in group 1 received 3 capsules orally (equivalent to 60 mg of andrographolide) with 240 mL of water, while another twelve participants in group 2 received 6 capsules (equivalent to 120 mg of andrographolide). This was followed by serial blood sampling for up to 24 h after dosing. For blood collection, 6 mL of venous blood in EDTA tube was collected via a forearm vein catheter at each time point including pre-dose (0 h), and post-dose after oral administration (T 0.167, 0.333, 0.5, 0.75, 1, 1.5, 2, 4, 6, 8, 10, 12 and 24 h). Subsequently, observation of elimination continued until 48 h post-dose to ensure complete excretion of the major active diterpenoids through urine. Urine samples were collected at day 0 (the day prior to dosing) and day 1–2 (T 0–4, 4–8, 8–12,12–24, 24–32, 32–40, and 40–48 h after dosing). The study then proceeded to investigate multiple doses in both groups by administering continuous oral doses from day 3 until the morning of day 5. (dosing at T48, 56, 64, 72, 80, 88, and 96 h). In group 1, three capsules were administered orally before meals, three times a day (3 × 3 capsules at 8-h intervals, calculated as 180 mg/day of andrographolide); whereas in group 2, six capsules were administered daily, three times a day (6 × 3 capsules at 8-h intervals, calculated as 360 mg/day of andrographolide). For serial blood sampling of multiple doses, 6 mL of blood samples were collected starting in the morning of day 5 (sampling timepoints T 96, 96.167, 96.333, 96.5, 96.75, 97, 97.5, 98, 100, 102, and 104 h post dose).
(§2) All collected blood samples were centrifuged at 4,000 rpm, 4^οC, for 5 min. Plasma was collected and stored in cryotubes at −70^οC until analysis. Urine was kept as 10 mL aliquot samples at each time point and stored at −70^οC until analysis. Extraction was performed by protein precipitation method as previously reported ([Songvut et al., 2023]). Briefly, 50 µL of either a plasma or urine sample was mixed with 200 µL of methanol containing an internal standard (IS) of digoxin (50 ng/mL). Pretreated samples were vortexed for 10 min and were then centrifuged at 12,000 rpm, 4°C, for 10 min. The supernatants were filtered through a 0.2 µm PVDF membrane and were subsequently transferred to vials for HPLC-MS/MS analysis.
(§3) Hydrolysis of the glucuronidated and sulfated conjugates was conducted by enzymatic incubation as our previous published method ([Songvut et al., 2023]). To analyze the metabolic conjugations, 50 μL of either a plasma or urine sample was pre-incubated at 37^οC with 50 µL of either of β-glucuronidase in sodium phosphate buffer (pH 6.8) for 30 min, or sulfatase in sodium acetate buffer (pH 5) for 2 h. IS (50 ng/mL) was then added along with 150 μL of methanol to precipitate protein. The extracted samples were then vortexed and centrifuged at 12,000 rpm, 4^οC, for 10 min. The supernatants were collected by filtering through a 0.2-µm PVDF membrane before HPLC-MS/MS injection.
(§4) Analysis for the concentrations of targeted compounds in plasma and urine samples were carried out using HPLC-MS/MS at the Laboratory of Pharmacology, Chulabhorn Research Institute, Bangkok, Thailand. The quantitative determination was performed according to a previously validated method ([Songvut et al., 2023]). […]

[2] = Plasma pharmacokinetics after single and multiple oral administration of A. paniculata aqueous extract capsules in healthy participants (HPLC-MS/MS, non-compartmental analysis); assay type: in vivo, human; conditions: for CL/F / AUC(0-inf) / AUC(0-t) / MRT / Vd/F / half-life / Tmax / Cmax: human; for CL/F / AUC(0-inf) / AUC(0-t) / MRT / Vd/F / half-life / Tmax: plasma; for AUC(0-inf): read-out: AUC(0-inf); for MRT: read-out: MRT; for Vd/F: read-out: Vd/F; for Tmax: read-out: Tmax; for Cmax: read-out: Cmax
Experimental: as §1, §2, §3, §4

[3] = set-up: method as in Panossian et al., 2000; conditions: previous pharmacokinetic studies; ref Panossian et al., 2000; cited from earlier work
[4] = single oral dose equivalent to 60 mg andrographolide, n = 12, mean ± SD
[5] = single oral dose equivalent to 120 mg andrographolide, n = 11, mean ± SD
[6] = multiple oral doses 60 mg × 3 times/day of andrographolide, n = 12, mean ± SD
[7] = multiple oral doses 60 mg × 3 times/day of andrographolide, n = 12, mean ± SD, read-out: AUC(0–8h)
[8] = multiple oral doses 60 mg × 3 times/day of andrographolide, n = 12, median [IQR]
[9] = multiple oral doses 120 mg × 3 times/day of andrographolide, n = 11, mean ± SD
[10] = multiple oral doses 120 mg × 3 times/day of andrographolide, n = 11, mean ± SD, read-out: AUC(0–8h)
[11] = multiple oral doses 120 mg × 3 times/day of andrographolide, n = 11, median [IQR]
[12] = single oral dose equivalent to 60 mg andrographolide, n = 12, mean ± SD, read-out: AUC(0–24h)
[13] = single oral dose equivalent to 60 mg andrographolide, n = 12, median [IQR]
[14] = single oral dose equivalent to 120 mg andrographolide, n = 11, mean ± SD, read-out: AUC(0–24h)
[15] = single oral dose equivalent to 120 mg andrographolide, n = 11, median [IQR]
[16] = multiple oral doses 60 mg × 3 times/day of andrographolide, plasma T 0–8 h, n = 12, mean ± SD
[17] = multiple oral doses 120 mg × 3 times/day of andrographolide, plasma T 0–8 h, n = 11, mean ± SD
[18] = single oral dose equivalent to 60 mg andrographolide, plasma T 0–24 h, n = 12, mean ± SD
[19] = single oral dose equivalent to 120 mg andrographolide, plasma T 0–24 h, n = 11, mean ± SD

SMILES | Cumulative urine [1, 4] [µg] | Cumulative urine [1, 5] | CL/F [2, 6] [mL/min/kg] | AUC(0-t) [2, 7] [ng·h/mL] | MRT [2, 6] [h] | Vd/F [2, 6] [L/kg] | half-life [2, 8] [min] | Tmax [2, 8] [min] | CL/F [2, 9] [mL/min/kg] | AUC(0-t) [2, 10] [ng·h/mL] | MRT [2, 9] [h] | Vd/F [2, 9] [L/kg] | half-life [2, 11] [min] | Tmax [2, 11] [min] | CL/F [2, 4] [mL/min/kg] | AUC(0-inf) [2, 4] [ng·h/mL] | AUC(0-t) [2, 12] [ng·h/mL] | MRT [2, 4] [h] | Vd/F [2, 4] [L/kg] | half-life [2, 13] [min] | also measured
C=C1CC[C@@H]2[C@](C)(CO[C@@H]3O[C@H](CO)[C@@H](O)[C@H](O)[C@H]3O)CCC[C@@]2(C)[C@@H]1CCC1=CCOC1=O [Neoandrographolide, neoandrographolide] | 24.0 ± 18.1 | 66.7 ± 29.3 µg | 65 | 69.7 ± 12.9 | 1.7 ± 0.22 | 3.4 ± 0.78 | 36 | 60 | 71.7 | 128 ± 29.1 | 1.9 ± 0.18 | 1.2 ± 0.29 | 11.4 | 60 | 36.7 | 41 ± 4.9 | 41 ± 4.9 | 1.8 ± 0.33 | 0.74 ± 0.16 | 13.8 | Detectability as conjugated metabolites in plasma ([2]; glucuronide and sulfate derivatives): less detectable; AUC(0-inf) [2, 6]: 69.7 ± 12.9 ng·h/mL; AUC(0-inf) [2, 9]: 128 ± 29.1 ng·h/mL; Tmax [2, 13]: 54 min; CL/F [2, 5]: 88.3 mL/min/kg; AUC(0-inf) [2, 5]: 104 ± 22.6 ng·h/mL; AUC(0-t) [2, 14]: 104 ± 22.6 ng·h/mL; MRT [2, 5]: 2.2 ± 0.22 h; Vd/F [2, 5]: 1.5 ± 0.33 L/kg; half-life [2, 15]: 11.4 min; Tmax [2, 15]: 48 min; Cmax [2, 16]: 34.8 ± 6.3 ng/mL; Cmax [2, 17]: 60.7 ± 12.2 ng/mL; Cmax [2, 18]: 24.4 ± 5.6 ng/mL; Cmax [2, 19]: 50.4 ± 19.2 ng/mL
C=C1CC[C@@H]2[C@](C)(CO)[C@H](O)CC[C@@]2(C)[C@@H]1C/C=C1/C(=O)OC[C@H]1O [Andrographolide, andrographolide] | 372 ± 159 | 1,193±553 μg | 75 | 195 ± 24 | 4.3 ± 0.99 | 18 ± 8 | 138 | 39 | 91.7 | 345 ± 48.8 | 3.4 ± 0.45 | 14.7 ± 3.7 | 102 | 48 | 81.7 | 210 ± 25.4 | 210 ± 25.4 | 6 ± 0.45 | 9 ± 1.66 | 78 | Amount excreted in urine on doubling the oral dose ([1]; 60 vs 120 mg of andrographolide): nearly corresponding doubling; Tmax [2, 13]: 48 min; CL/F [2, 5]: 100 mL/min/kg; AUC(0-inf) [2, 5]: 345 ± 63.5 ng·h/mL; AUC(0-t) [2, 14]: 345 ± 63.5 ng·h/mL; MRT [2, 5]: 5.3 ± 0.63 h; Vd/F [2, 5]: 10.8 ± 1.6 L/kg; half-life [2, 15]: 72 min; Tmax [2, 15]: 48 min; Cmax [2, 16]: 85.9 ± 19 ng/mL; Cmax [2, 17]: 172 ± 54.4 ng/mL; Cmax [2, 18]: 72.1 ± 28.7 ng/mL; Cmax [2, 19]: 112 ± 33.4 ng/mL; Tmax [3]: 1.36 h
